Several values for one entry are separate records, joined by “and”; a condition that tells them apart may be missing. Equal entries are not always repeated.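 Method: 48-hour compound exposure of cells in 96-well plates, five concentrations, linear interpolation of endpoints. Definition used: TGI = concentration required for complete inhibition of growth.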
Key:
Test in all cases: growth of human tumour cells (NCI), 48 h
SF-268 CNS = system: SF-268 CNS
OVCAR-8 ovarian = system: OVCAR-8 ovarian
HCT-15 colon = system: HCT-15 colon
HCT-116 colon = system: HCT-116 colon
PC-3 prostate = system: PC-3 prostate
RPMI-8226 leukemia = system: RPMI-8226 leukemia
NCI-H23 lung = system: NCI-H23 lung
MCF7 breast = system: MCF7 breast
UACC-257 melanoma = system: UACC-257 melanoma
MALME-3M melanoma = system: MALME-3M melanoma
HOP-92 NSCLC = system: HOP-92 NSCLC
SW-620 colon = system: SW-620 colon
OVCAR-5 ovarian = system: OVCAR-5 ovarian
A498 renal = system: A498 renal
MOLT-4 leukemia = system: MOLT-4 leukemia
NCI-H226 lung = system: NCI-H226 lung
LOX IMVI melanoma = system: LOX IMVI melanoma
BT-549 breast = system: BT-549 breast
SR leukemia = system: SR leukemia
HT29 colon = system: HT29 colon
SK-OV-3 ovarian = system: SK-OV-3 ovarian
786-0 renal = system: 786-0 renal
M14 melanoma = system: M14 melanoma
OVCAR-4 ovarian = system: OVCAR-4 ovarian
UACC-62 melanoma = system: UACC-62 melanoma
ACHN renal = system: ACHN renal
UO-31 renal = system: UO-31 renal
MDA-N = system: MDA-N
CAKI-1 renal = system: CAKI-1 renal
TK-10 renal = system: TK-10 renal
U251 CNS = system: U251 CNS
COLO 205 colon = system: COLO 205 colon
OVCAR-3 ovarian = system: OVCAR-3 ovarian
T-47D breast = system: T-47D breast
K-562 leukemia = system: K-562 leukemia
MDA-MB-435 = system: MDA-MB-435
NCI-H522 lung = system: NCI-H522 lung
SF-295 CNS = system: SF-295 CNS
HCC-2998 colon = system: HCC-2998 colon
SF-539 CNS = system: SF-539 CNS
CCRF-CEM leukemia = system: CCRF-CEM leukemia
HS 578T breast = system: HS 578T breast
DU-145 prostate = system: DU-145 prostate
SK-MEL-5 melanoma = system: SK-MEL-5 melanoma
MDA-MB-231 breast = system: MDA-MB-231 breast
A549 NSCLC = system: A549 NSCLC
HOP-62 NSCLC = system: HOP-62 NSCLC
NCI-H460 lung = system: NCI-H460 lung
SK-MEL-2 melanoma = system: SK-MEL-2 melanoma
EKVX NSCLC = system: EKVX NSCLC
HL-60(TB) leukemia = system: HL-60(TB) leukemia
SK-MEL-28 melanoma = system: SK-MEL-28 melanoma
SNB-19 CNS = system: SNB-19 CNS
KM12 colon = system: KM12 colon
NCI/ADR-RES ovarian = system: NCI/ADR-RES ovarian
SN12C renal = system: SN12C renal
RXF 393 renal = system: RXF 393 renal
SNB-75 CNS = system: SNB-75 CNS
IGROV1 ovarian = system: IGROV1 ovarian

With COc1cc(C2SCC(=O)N2c2ccc(-n3c(-c4ccccc4)nc4ccccc4c3=O)cc2)ccc1O (stereo unspecified) the TGI (SF-268 CNS) was > 100 µM, the TGI (OVCAR-8 ovarian) was > 100 µM and the TGI (HCT-15 colon) was > 100 µM. For the same compound, the TGI (HCT-116 colon) was > 100 µM, the TGI (PC-3 prostate) was > 100 µM and the TGI (RPMI-8226 leukemia) was > 100 µM. For the same compound, the TGI (NCI-H23 lung) was > 100 µM, the TGI (MCF7 breast) was > 100 µM and the TGI (UACC-257 melanoma) was > 100 µM. For the same compound, the TGI (MALME-3M melanoma) was > 100 µM, the TGI (HOP-92 NSCLC) was 68.9 µM and the TGI (SW-620 colon) was > 100 µM. For the same compound, the TGI (OVCAR-5 ovarian) was > 100 µM, the TGI (A498 renal) was > 100 µM and the TGI (MOLT-4 leukemia) was > 100 µM. The TGI (NCI-H226 lung) was > 100 µM, the TGI (LOX IMVI melanoma) was > 100 µM and the TGI (BT-549 breast) was > 100 µM. For the same compound, the TGI (SR leukemia) was > 100 µM, the TGI (HT29 colon) was > 100 µM and the TGI (SK-OV-3 ovarian) was > 100 µM. For the same compound, the TGI (786-0 renal) was > 100 µM, the TGI (M14 melanoma) was > 100 µM and the TGI (OVCAR-4 ovarian) was > 100 µM. For the same compound, the TGI (UACC-62 melanoma) was > 100 µM, the TGI (ACHN renal) was > 100 µM and the TGI (UO-31 renal) was 97.7 µM. The TGI (MDA-N) was > 100 µM, the TGI (CAKI-1 renal) was > 100 µM and the TGI (TK-10 renal) was > 100 µM. For the same compound, the TGI (U251 CNS) was > 100 µM, the TGI (COLO 205 colon) was > 100 µM and the TGI (OVCAR-3 ovarian) was > 100 µM. The TGI (T-47D breast) was > 100 µM, the TGI (K-562 leukemia) was > 100 µM and the TGI (MDA-MB-435) was > 100 µM. For the same compound, the TGI (NCI-H522 lung) was > 100 µM, the TGI (SF-295 CNS) was > 100 µM and the TGI (HCC-2998 colon) was > 100 µM. The TGI (SF-539 CNS) was > 100 µM, the TGI (CCRF-CEM leukemia) was > 100 µM and the TGI (HS 578T breast) was > 100 µM. For the same compound, the TGI (DU-145 prostate) was > 100 µM, the TGI (SK-MEL-5 melanoma) was > 100 µM and the TGI (MDA-MB-231 breast) was > 100 µM. The TGI (A549 NSCLC) was > 100 µM, the TGI (HOP-62 NSCLC) was > 100 µM and the TGI (NCI-H460 lung) was > 100 µM. For the same compound, the TGI (SK-MEL-2 melanoma) was > 100 µM, the TGI (EKVX NSCLC) was > 100 µM and the TGI (HL-60(TB) leukemia) was > 100 µM. For the same compound, the TGI (SK-MEL-28 melanoma) was > 100 µM, the TGI (SNB-19 CNS) was > 100 µM and the TGI (KM12 colon) was > 100 µM. For the same compound, the TGI (NCI/ADR-RES ovarian) was > 100 µM.

For O=C1NC(N/N=C\C(O)C(O)C(O)CO)=N/C1=C/c1ccc(Cl)cc1 (stereo unspecified), the TGI (SF-268 CNS) was > 100 µM, the TGI (OVCAR-8 ovarian) was > 100 µM and the TGI (HCT-15 colon) was 52.8 µM. For the same compound, the TGI (HCT-116 colon) was > 100 µM, the TGI (PC-3 prostate) was > 100 µM and the TGI (SN12C renal) was > 100 µM. For the same compound, the TGI (RPMI-8226 leukemia) was > 100 µM and 94.3 µM, the TGI (NCI-H23 lung) was > 100 µM and the TGI (MCF7 breast) was > 100 µM. For the same compound, the TGI (UACC-257 melanoma) was > 100 µM, the TGI (MALME-3M melanoma) was 80.2 µM and > 100 µM and the TGI (HOP-92 NSCLC) was > 100 µM. The TGI (SW-620 colon) was > 100 µM, the TGI (OVCAR-5 ovarian) was > 100 µM and the TGI (A498 renal) was > 100 µM. The TGI (MOLT-4 leukemia) was 55.6 µM and 61.4 µM, the TGI (NCI-H226 lung) was > 100 µM and the TGI (LOX IMVI melanoma) was > 100 µM. The TGI (BT-549 breast) was > 100 µM, the TGI (HT29 colon) was > 100 µM and the TGI (SK-OV-3 ovarian) was > 100 µM. The TGI (786-0 renal) was > 100 µM, the TGI (M14 melanoma) was 77.8 µM and the TGI (OVCAR-4 ovarian) was 57 µM. For the same compound, the TGI (ACHN renal) was 52.7 µM and 48.1 µM, the TGI (UO-31 renal) was > 100 µM and the TGI (MDA-N) was > 100 µM. The TGI (CAKI-1 renal) was > 100 µM, the TGI (TK-10 renal) was > 100 µM and the TGI (RXF 393 renal) was > 100 µM. The TGI (U251 CNS) was > 100 µM, the TGI (COLO 205 colon) was > 100 µM and the TGI (OVCAR-3 ovarian) was 58.3 µM and 91.9 µM. For the same compound, the TGI (T-47D breast) was > 100 µM, the TGI (K-562 leukemia) was > 100 µM and the TGI (MDA-MB-435) was > 100 µM. The TGI (NCI-H522 lung) was > 100 µM, the TGI (SF-295 CNS) was > 100 µM and the TGI (SF-539 CNS) was > 100 µM. The TGI (CCRF-CEM leukemia) was > 100 µM, the TGI (HS 578T breast) was > 100 µM and the TGI (DU-145 prostate) was > 100 µM. For the same compound, the TGI (SK-MEL-5 melanoma) was > 100 µM, the TGI (MDA-MB-231 breast) was > 100 µM and the TGI (A549 NSCLC) was > 100 µM. For the same compound, the TGI (HOP-62 NSCLC) was > 100 µM, the TGI (NCI-H460 lung) was > 100 µM and the TGI (SK-MEL-2 melanoma) was > 100 µM. For the same compound, the TGI (SNB-75 CNS) was > 100 µM, the TGI (EKVX NSCLC) was > 100 µM and the TGI (HL-60(TB) leukemia) was > 100 µM. The TGI (SK-MEL-28 melanoma) was > 100 µM, the TGI (SNB-19 CNS) was > 100 µM and the TGI (KM12 colon) was > 100 µM. For the same compound, the TGI (NCI/ADR-RES ovarian) was > 100 µM and the TGI (IGROV1 ovarian) was > 100 µM.
